Assay results reported in publication PMC9250534, “Synthesis and direct assay of large macrocycle diversities by combinatorial late-stage modification at picomole scale” (Nature Communications, 2022).
Blank lines part the entries; values can stand above or below the compound they belong to. Numbered stars: 1 amine (or outer) side, 2 acyl side, 3 side chain; on linkers, the order of the positions; unused ones are H or OH. Bridge positions count the residues as written; N and C are the ends. Square brackets hold non-standard residues; d marks the D form. Peptide text beside a SMILES is read from it. * marks the point of attachment. ξ: configuration not given here. Pro(cis-4-NH-(E)-Cinnamoyl) = O=C(/C=C/c1ccccc1)N[C@@H]1CN[C@H](C(=O)O)C1; Pro(4S-NHCO(5-Cl-2-thienyl)) = O=C(N[C@@H]1CN[C@H](C(=O)O)C1)c1ccc(Cl)s1; ξPro(4-NHCO(5-Cl-2-thienyl)) = O=C(NC1CNC(C(=O)O)C1)c1ccc(Cl)s1; ξPro(4ξ-NHCOC6H4-4-Cl) = O=C(NC1CNC(C(=O)O)C1)c1ccc(Cl)cc1; 2Thenoyl(5-Cl) = O=C(c1ccc(Cl)s1)*; Cysteamide = C(CS[*:3])N[*:1]; Api = NC1(C(=O)O)CCNCC1; Mpa = O=C(O)CCS

Biological target: MDM2 (Homo sapiens, UniProt Q00987)
Test: MDM2 binding screen: displacement of fluorescent p53 peptide probe FP53 (fluorescence polarization)
Details: crude macrocycle reactions; for fraction fluorescent probe displaced, Screen: initial screen
How it was run: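 Macrocycle reaction products at a final 10 µM were tested for displacement of a p53-based fluorescent peptide from human MDM2. Fluorescence anisotropy (ex 485/em 535 nm) was read once per macrocycle at 25 °C.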

MDM2, sequence (Q00987 whole entry): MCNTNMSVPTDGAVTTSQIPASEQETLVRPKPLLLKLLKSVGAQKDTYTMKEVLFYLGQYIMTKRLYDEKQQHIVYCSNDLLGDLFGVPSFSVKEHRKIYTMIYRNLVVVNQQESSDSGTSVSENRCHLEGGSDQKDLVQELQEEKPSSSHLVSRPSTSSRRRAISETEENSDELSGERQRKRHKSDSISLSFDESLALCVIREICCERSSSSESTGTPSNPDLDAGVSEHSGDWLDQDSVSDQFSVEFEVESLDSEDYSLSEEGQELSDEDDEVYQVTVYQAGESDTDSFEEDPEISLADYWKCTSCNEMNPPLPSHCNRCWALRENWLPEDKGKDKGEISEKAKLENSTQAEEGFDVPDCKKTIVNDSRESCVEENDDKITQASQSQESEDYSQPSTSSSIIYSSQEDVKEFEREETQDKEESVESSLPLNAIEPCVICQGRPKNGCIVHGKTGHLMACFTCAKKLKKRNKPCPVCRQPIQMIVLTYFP

SMILES: O=C1CCSSCCNC(=O)[C@H]2CCCN(C2)C(=O)[C@H](Cc2c[nH]c3ccccc23)NC(=O)[C@H](CNC(=O)c2ccc(Cl)s2)N1 [X D3 W B4 Acid 14]
- fraction fluorescent probe displaced, Screen (Acid 14): 0.20
- fraction fluorescent probe displaced, Replicate (Acid 14): 0.0465

SMILES: O=C(/C=C/c1ccccc1)NC[C@@H]1NC(=O)CCSSCCNC(=O)[C@H]2CCCN(C2)C(=O)[C@H](Cc2c[nH]c3ccccc23)NC1=O [X D3 W B4 Acid 91]
- fraction fluorescent probe displaced, Screen (Acid 91): 0.14
- fraction fluorescent probe displaced, Replicate (Acid 91): 0.04

SMILES: O=C1CCSSCCNC(=O)c2cccc(c2)CNC(=O)[C@H](Cc2c[nH]c3ccccc23)NC(=O)[C@H](CNC(=O)c2ccc(Cl)s2)N1 [X D3 W B5 Acid 14]
- fraction fluorescent probe displaced, Screen (Acid 14): 0.26
- fraction fluorescent probe displaced, Replicate (Acid 14): 0.22

SMILES: O=C1CCSSCCNC(=O)c2cccc(c2)CNC(=O)[C@H](Cc2c[nH]c3ccccc23)NC(=O)[C@H](CNC(=O)c2ccc(Cl)cc2)N1 [X D3 W B5 Acid 25]
- fraction fluorescent probe displaced, Screen (Acid 25): 0.35
- fraction fluorescent probe displaced, Replicate (Acid 25): 0.28

SMILES: O=C(/C=C/c1ccccc1)NC[C@@H]1NC(=O)CCSSCCNC(=O)c2cccc(c2)CNC(=O)[C@H](Cc2c[nH]c3ccccc23)NC1=O [X D3 W B5 Acid 91]
- fraction fluorescent probe displaced, Screen (Acid 91): 0.24
- fraction fluorescent probe displaced, Replicate (Acid 91): 0.32

SMILES: O=C(NC1CC2C(=O)N3CCCC3C(=O)NC(Cc3ccccc3)C(=O)NCCSSCCC(=O)N2C1)c1ccc(Cl)cc1 (stereo not shown) [X D5 B1 F Acid 25] ([Mpa][ξPro(4ξ-NHCOC6H4-4-Cl)]PF-Cysteamide; disulfide 1-C; configuration not given here)
- fraction fluorescent probe displaced, Screen (Acid 25): -0.07
- fraction fluorescent probe displaced, Replicate (Acid 25): 0.12

SMILES: O=C(NC1CC2C(=O)N3CCCC3C(=O)NC(Cc3c[nH]c4ccccc34)C(=O)NCCSSCCC(=O)N2C1)c1ccc(Cl)s1 (stereo not shown) [X D5 B1 W Acid 14] ([Mpa][ξPro(4-NHCO(5-Cl-2-thienyl))]PW-Cysteamide; disulfide 1-C; configuration not given here)
- fraction fluorescent probe displaced, Screen (Acid 14): 0.17
- fraction fluorescent probe displaced, Replicate (Acid 14): 0.0465

SMILES: O=C(NC1CC2C(=O)N3CCCC3C(=O)NC(Cc3c[nH]c4ccccc34)C(=O)NCCSSCCC(=O)N2C1)c1ccc(Cl)cc1 (stereo not shown) [X D5 B1 W Acid 25] ([Mpa][ξPro(4ξ-NHCOC6H4-4-Cl)]PW-Cysteamide; disulfide 1-C; configuration not given here)
- fraction fluorescent probe displaced, Screen (Acid 25): 0.25
- fraction fluorescent probe displaced, Replicate (Acid 25): 0.15

SMILES: O=C(/C=C/c1ccccc1)N[C@H]1C[C@H]2C(=O)N3CCC[C@H]3C(=O)N[C@@H](Cc3c[nH]c4ccccc34)C(=O)NCCSSCCC(=O)N2C1 [X D5 B1 W Acid 91] ([Mpa][Pro(cis-4-NH-(E)-Cinnamoyl)]PW-Cysteamide; disulfide 1-C)
- fraction fluorescent probe displaced, Screen (Acid 91): 0.03
- fraction fluorescent probe displaced, Replicate (Acid 91): 0.07

SMILES: O=C1CCNC(=O)C2CC(NC(=O)c3ccc(Cl)s3)CN2C(=O)CCSSCCNC(=O)C(Cc2ccccc2)N1 (stereo not shown) [X D5 B2 F Acid 14]
- fraction fluorescent probe displaced, Screen (Acid 14): -0.0337
- fraction fluorescent probe displaced, Replicate (Acid 14): 0.07

SMILES: O=C1CCNC(=O)C2CC(NC(=O)c3ccc(Cl)cc3)CN2C(=O)CCSSCCNC(=O)C(Cc2c[nH]c3ccccc23)N1 (stereo not shown) [X D5 B2 W Acid 25]
- fraction fluorescent probe displaced, Screen (Acid 25): 0.15
- fraction fluorescent probe displaced, Replicate (Acid 25): 0.07

SMILES: O=C(NC1CC2C(=O)N3CCCC(C3)C(=O)NC(Cc3ccccc3)C(=O)NCCSSCCC(=O)N2C1)c1ccc(Cl)s1 (stereo not shown) [X D5 B4 F Acid 14]
- fraction fluorescent probe displaced, Screen (Acid 14): -0.06
- fraction fluorescent probe displaced, Replicate (Acid 14): 0.0211

SMILES: O=C(NC1CC2C(=O)N3CCCC(C3)C(=O)NC(Cc3c[nH]c4ccccc34)C(=O)NCCSSCCC(=O)N2C1)c1ccc(Cl)s1 (stereo not shown) [X D5 B4 W Acid 14]
- fraction fluorescent probe displaced, Screen (Acid 14): 0.11
- fraction fluorescent probe displaced, Replicate (Acid 14): 0.12

SMILES: O=C1NC(Cc2ccccc2)C(=O)NCCSSCCC(=O)N2CC(NC(=O)c3ccc(Cl)s3)CC2C(=O)NCc2cccc1c2 (stereo not shown) [X D5 B5 F Acid 14]
- fraction fluorescent probe displaced, Screen (Acid 14): -0.0337
- fraction fluorescent probe displaced, Replicate (Acid 14): 0.0465

SMILES: O=C(N[C@H]1C[C@H]2C(=O)NCc3cccc(c3)C(=O)N[C@@H](Cc3ccccc3)C(=O)NCCSSCCC(=O)N2C1)c1ccc(Cl)cc1 [X D5 B5 F Acid 25]
- fraction fluorescent probe displaced, Screen (Acid 25): -0.00813
- fraction fluorescent probe displaced, Replicate (Acid 25): 0.15

SMILES: O=C(C=Cc1ccccc1)NC1CC2C(=O)NCc3cccc(c3)C(=O)NC(Cc3ccccc3)C(=O)NCCSSCCC(=O)N2C1 (stereo not shown) [X D5 B5 F Acid 91]
- fraction fluorescent probe displaced, Screen (Acid 91): -0.05
- fraction fluorescent probe displaced, Replicate (Acid 91): 0.07

SMILES: O=C(/C=C/c1ccccc1)N[C@H]1C[C@H]2C(=O)NCc3cccc(c3)C(=O)N[C@@H](Cc3c[nH]c4ccccc34)C(=O)NCCSSCCC(=O)N2C1 [X D5 B5 W Acid 91]
- fraction fluorescent probe displaced, Screen (Acid 91): 0.00268
- fraction fluorescent probe displaced, Replicate (Acid 91): 0.09

SMILES: O=C(NC1CC2C(=O)NC(Cc3ccccc3)C(=O)N3CCCC3C(=O)NCCSSCCC(=O)N2C1)c1ccc(Cl)s1 (stereo not shown) [X D5 F B1 Acid 14] ([Mpa][ξPro(4-NHCO(5-Cl-2-thienyl))]FP-Cysteamide; disulfide 1-C; configuration not given here)
- fraction fluorescent probe displaced, Screen (Acid 14): 0.28
- fraction fluorescent probe displaced, Replicate (Acid 14): 0.0465

SMILES: O=C1CCNC(=O)C(Cc2ccccc2)NC(=O)C2CC(NC(=O)c3ccc(Cl)s3)CN2C(=O)CCSSCCN1 (stereo not shown) [X D5 F B2 Acid 14]
- fraction fluorescent probe displaced, Screen (Acid 14): 0.08
- fraction fluorescent probe displaced, Replicate (Acid 14): 0.0465

Other lines, results leading:

- fraction fluorescent probe displaced, Screen (Acid 91): 0.0563
- fraction fluorescent probe displaced, Replicate (Acid 91): -0.0333
SMILES: O=C(C=Cc1ccccc1)NC1CC2C(=O)NC(Cc3ccccc3)C(=O)NCCC(=O)NCCSSCCC(=O)N2C1 (stereo not shown) [X D5 F B2 Acid 91]

- fraction fluorescent probe displaced, Screen (Acid 14): 0.0241
- fraction fluorescent probe displaced, Replicate (Acid 14): 0.10
SMILES: O=C(NC1CC2C(=O)NC(Cc3ccccc3)C(=O)N3CCCC(C3)C(=O)NCCSSCCC(=O)N2C1)c1ccc(Cl)s1 (stereo not shown) [X D5 F B4 Acid 14]

- fraction fluorescent probe displaced, Screen (Acid 25): 0.0244
- fraction fluorescent probe displaced, Replicate (Acid 25): 0.0211
SMILES: O=C(NC1CC2C(=O)NC(Cc3ccccc3)C(=O)N3CCCC(C3)C(=O)NCCSSCCC(=O)N2C1)c1ccc(Cl)cc1 (stereo not shown) [X D5 F B4 Acid 25]

- fraction fluorescent probe displaced, Screen (Acid 14): 0.11
- fraction fluorescent probe displaced, Replicate (Acid 14): -0.03
SMILES: O=C1NCCSSCCC(=O)N2CC(NC(=O)c3ccc(Cl)s3)CC2C(=O)NC(Cc2ccccc2)C(=O)NCc2cccc1c2 (stereo not shown) [X D5 F B5 Acid 14]

- fraction fluorescent probe displaced, Screen (Acid 25): 0.0569
- fraction fluorescent probe displaced, Replicate (Acid 25): 0.0465
SMILES: O=C1NCCSSCCC(=O)N2C[C@@H](NC(=O)c3ccc(Cl)cc3)C[C@H]2C(=O)N[C@@H](Cc2ccccc2)C(=O)NCc2cccc1c2 [X D5 F B5 Acid 25]

- fraction fluorescent probe displaced, Screen (Acid 91): -0.05
- fraction fluorescent probe displaced, Replicate (Acid 91): -0.00827
SMILES: O=C(/C=C/c1ccccc1)N[C@H]1C[C@H]2C(=O)N[C@@H](Cc3ccccc3)C(=O)NCc3cccc(c3)C(=O)NCCSSCCC(=O)N2C1 [X D5 F B5 Acid 91]

- fraction fluorescent probe displaced, Screen (Acid 14): 0.23
- fraction fluorescent probe displaced, Replicate (Acid 14): 0.10
SMILES: O=C(N[C@H]1C[C@H]2C(=O)N[C@@H](Cc3c[nH]c4ccccc34)C(=O)N3CCC[C@H]3C(=O)NCCSSCCC(=O)N2C1)c1ccc(Cl)s1 [X D5 W B1 Acid 14] ([Mpa][Pro(4S-NHCO(5-Cl-2-thienyl))]WP-Cysteamide; disulfide 1-C)

- fraction fluorescent probe displaced, Screen (Acid 25): 0.22
- fraction fluorescent probe displaced, Replicate (Acid 25): 0.10
SMILES: O=C(NC1CC2C(=O)NC(Cc3c[nH]c4ccccc34)C(=O)N3CCCC3C(=O)NCCSSCCC(=O)N2C1)c1ccc(Cl)cc1 (stereo not shown) [X D5 W B1 Acid 25] ([Mpa][ξPro(4ξ-NHCOC6H4-4-Cl)]WP-Cysteamide; disulfide 1-C; configuration not given here)

- fraction fluorescent probe displaced, Screen (Acid 14): 0.17
- fraction fluorescent probe displaced, Replicate (Acid 14): 0.17
SMILES: O=C1CCNC(=O)C(Cc2c[nH]c3ccccc23)NC(=O)C2CC(NC(=O)c3ccc(Cl)s3)CN2C(=O)CCSSCCN1 (stereo not shown) [X D5 W B2 Acid 14]

- fraction fluorescent probe displaced, Screen (Acid 91): 0.00268
- fraction fluorescent probe displaced, Replicate (Acid 91): -0.0333
SMILES: O=C(/C=C/c1ccccc1)N[C@H]1C[C@H]2C(=O)N[C@@H](Cc3c[nH]c4ccccc34)C(=O)NCCC(=O)NCCSSCCC(=O)N2C1 [X D5 W B2 Acid 91]

- fraction fluorescent probe displaced, Screen (Acid 25): 0.09
- fraction fluorescent probe displaced, Replicate (Acid 25): 0.15
SMILES: O=C(NC1CC2C(=O)NC(Cc3c[nH]c4ccccc34)C(=O)N3CCCC(C3)C(=O)NCCSSCCC(=O)N2C1)c1ccc(Cl)cc1 (stereo not shown) [X D5 W B4 Acid 25]

- fraction fluorescent probe displaced, Screen (Acid 91): 0.0563
- fraction fluorescent probe displaced, Replicate (Acid 91): 0.07
SMILES: O=C(C=Cc1ccccc1)NC1CC2C(=O)NC(Cc3c[nH]c4ccccc34)C(=O)N3CCCC(C3)C(=O)NCCSSCCC(=O)N2C1 (stereo not shown) [X D5 W B4 Acid 91]

- fraction fluorescent probe displaced, Screen (Acid 14): 0.08
- fraction fluorescent probe displaced, Replicate (Acid 14): 0.0211
SMILES: O=C1NCCSSCCC(=O)N2CC(NC(=O)c3ccc(Cl)s3)CC2C(=O)NC(Cc2c[nH]c3ccccc23)C(=O)NCc2cccc1c2 (stereo not shown) [X D5 W B5 Acid 14]

- fraction fluorescent probe displaced, Screen (Acid 25): 0.0569
- fraction fluorescent probe displaced, Replicate (Acid 25): 0.0465
SMILES: O=C1NCCSSCCC(=O)N2C[C@@H](NC(=O)c3ccc(Cl)cc3)C[C@H]2C(=O)N[C@@H](Cc2c[nH]c3ccccc23)C(=O)NCc2cccc1c2 [X D5 W B5 Acid 25]

- fraction fluorescent probe displaced, Screen (Acid 91): -0.05
- fraction fluorescent probe displaced, Replicate (Acid 91): 0.0168
SMILES: O=C(/C=C/c1ccccc1)N[C@H]1C[C@H]2C(=O)N[C@@H](Cc3c[nH]c4ccccc34)C(=O)NCc3cccc(c3)C(=O)NCCSSCCC(=O)N2C1 [X D5 W B5 Acid 91]

- fraction fluorescent probe displaced, Screen (Acid 14): -0.00483
- fraction fluorescent probe displaced, Replicate (Acid 14): 0.0465
SMILES: O=C1CCSSCCNC(=O)C(Cc2ccccc2)NC(=O)C2CCCN2C(=O)C2(CCN(C(=O)c3ccc(Cl)s3)CC2)N1 (stereo not shown) [X D6 B1 F Acid 14] ([Mpa][Api](2Thenoyl(5-Cl))PF-Cysteamide; disulfide 1-C; configuration not given here)
